Patent US20230310428A1, “EGFR INHIBITOR AND PREPARATION METHOD AND USE THEREOF” (HONGYUN BIOTECH CO., LTD., priority 2020, published 2023)

Key:
Experiment in all cases: Growth inhibitory activity of compounds on BaF3 cell lines stably transfected with kinase (MTS, 48 h)
Type in all cases: cell-based
[1] = target: T1, various mutants of kinase EGFR (BaF3 cell lines stably transfected with kinase) (Homo sapiens, UniProt P00533); conditions: BaF3 cells stably transfected with EGFR Δ19Del, read-out: IC50, growth inhibition, Δ19Del
T1 construct: other: BaF3 cells stably transfected with EGFR Δ19Del; MTS, 48 h; other: BaF3 cell line stably transfected with EGFR Δ19Del
In short: (§1)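 Cells in DMEM or RPMI 1640 with 10% FBS were exposed to compound at 8 concentrations (top 10 µM, 1/3 steps, 0.1% DMSO) for 48 h at 37 °C, 5% CO2. MTS/PES was then added for 1-4 h and OD490 read; IC50 was fitted from growth inhibition versus 0.1% DMSO control.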

[2] = target: T2, various mutants of kinase EGFR (BaF3 cell lines stably transfected with kinase) (Homo sapiens, UniProt P00533, C797S/L858R/T790M); conditions: BaF3 cells stably transfected with EGFR L858R/T790M/C797S, read-out: IC50, growth inhibition, L858R/T790M/C797S
T2 construct: expressed in transfected cells; host or cells: BaF3
In short: as §1

[3] = target: T3, various mutants of kinase EGFR (BaF3 cell lines stably transfected with kinase) (Homo sapiens, UniProt P00533, L858R); conditions: BaF3 cells stably transfected with EGFR L858R, read-out: IC50, growth inhibition, L858R
T3 construct: expressed in transfected cells; host or cells: BaF3
In short: as §1

[4] = target: T4, various mutants of kinase EGFR (BaF3 cell lines stably transfected with kinase) (Homo sapiens, UniProt P00533, L858R/T790M); conditions: BaF3 cells stably transfected with EGFR L858R/T790M, read-out: IC50, growth inhibition, L858R/T790M
T4 construct: expressed in transfected cells; host or cells: BaF3
In short: as §1

[5] = target: T5, various mutants of kinase EGFR (BaF3 cell lines stably transfected with kinase) (Homo sapiens, UniProt P00533, T790M/C797S, form not given); conditions: BaF3 cells stably transfected with EGFR Δ19Del/T790M/C797S, read-out: IC50, growth inhibition, Δ19Del/T790M/C797S
T5 construct: other: BaF3 cells stably transfected with EGFR Δ19Del/T790M/C797S; MTS, 48; other: BaF3 cell line stably transfected with EGFR Δ19Del/T790M/C7
In short: as §1

[6] = target: T6, various mutants of kinase EGFR (BaF3 cell lines stably transfected with kinase) (Homo sapiens, UniProt P00533, T790M, form not given); conditions: BaF3 cells stably transfected with EGFR Δ19Del/T790M, read-out: IC50, growth inhibition, Δ19Del/T790M
T6 construct: other: BaF3 cells stably transfected with EGFR Δ19Del/T790M; MTS, 48 h; other: BaF3 cell line stably transfected with EGFR Δ19Del/T790M; MTS, 48
In short: as §1

T1 sequence (P00533 with tags, fused parts or gaps DEL746-750): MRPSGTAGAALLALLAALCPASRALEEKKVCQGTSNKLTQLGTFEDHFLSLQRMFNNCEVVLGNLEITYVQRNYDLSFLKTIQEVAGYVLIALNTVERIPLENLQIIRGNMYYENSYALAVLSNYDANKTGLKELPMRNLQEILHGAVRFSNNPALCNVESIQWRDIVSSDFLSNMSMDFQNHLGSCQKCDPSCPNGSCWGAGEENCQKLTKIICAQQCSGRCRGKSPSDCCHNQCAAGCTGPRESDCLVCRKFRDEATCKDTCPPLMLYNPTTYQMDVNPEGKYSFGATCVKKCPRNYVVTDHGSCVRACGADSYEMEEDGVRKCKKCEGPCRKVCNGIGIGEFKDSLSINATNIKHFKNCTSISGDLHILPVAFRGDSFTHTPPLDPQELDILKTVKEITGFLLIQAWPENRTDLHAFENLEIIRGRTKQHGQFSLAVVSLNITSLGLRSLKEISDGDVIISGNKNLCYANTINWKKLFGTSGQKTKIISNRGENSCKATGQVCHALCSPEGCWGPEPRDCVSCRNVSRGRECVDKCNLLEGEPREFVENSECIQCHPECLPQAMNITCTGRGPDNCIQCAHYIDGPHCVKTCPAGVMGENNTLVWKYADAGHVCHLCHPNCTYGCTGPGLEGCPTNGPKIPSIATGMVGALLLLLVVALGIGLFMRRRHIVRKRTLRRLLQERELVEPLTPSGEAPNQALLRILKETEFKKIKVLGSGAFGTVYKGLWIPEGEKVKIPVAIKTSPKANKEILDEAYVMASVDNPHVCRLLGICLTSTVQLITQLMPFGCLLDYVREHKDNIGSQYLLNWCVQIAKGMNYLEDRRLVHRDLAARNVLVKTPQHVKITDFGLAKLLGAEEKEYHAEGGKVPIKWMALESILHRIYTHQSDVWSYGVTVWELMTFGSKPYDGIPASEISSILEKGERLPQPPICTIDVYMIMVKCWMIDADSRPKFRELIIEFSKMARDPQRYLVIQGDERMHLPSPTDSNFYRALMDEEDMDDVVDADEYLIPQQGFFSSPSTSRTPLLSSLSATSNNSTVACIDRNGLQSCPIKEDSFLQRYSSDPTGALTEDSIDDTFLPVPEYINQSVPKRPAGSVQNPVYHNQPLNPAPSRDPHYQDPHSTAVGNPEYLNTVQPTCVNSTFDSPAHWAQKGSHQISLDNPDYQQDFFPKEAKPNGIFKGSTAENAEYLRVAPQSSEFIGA
T5 sequence (P00533 with tags, fused parts or gaps DEL746-750/T790M/C797S, form open): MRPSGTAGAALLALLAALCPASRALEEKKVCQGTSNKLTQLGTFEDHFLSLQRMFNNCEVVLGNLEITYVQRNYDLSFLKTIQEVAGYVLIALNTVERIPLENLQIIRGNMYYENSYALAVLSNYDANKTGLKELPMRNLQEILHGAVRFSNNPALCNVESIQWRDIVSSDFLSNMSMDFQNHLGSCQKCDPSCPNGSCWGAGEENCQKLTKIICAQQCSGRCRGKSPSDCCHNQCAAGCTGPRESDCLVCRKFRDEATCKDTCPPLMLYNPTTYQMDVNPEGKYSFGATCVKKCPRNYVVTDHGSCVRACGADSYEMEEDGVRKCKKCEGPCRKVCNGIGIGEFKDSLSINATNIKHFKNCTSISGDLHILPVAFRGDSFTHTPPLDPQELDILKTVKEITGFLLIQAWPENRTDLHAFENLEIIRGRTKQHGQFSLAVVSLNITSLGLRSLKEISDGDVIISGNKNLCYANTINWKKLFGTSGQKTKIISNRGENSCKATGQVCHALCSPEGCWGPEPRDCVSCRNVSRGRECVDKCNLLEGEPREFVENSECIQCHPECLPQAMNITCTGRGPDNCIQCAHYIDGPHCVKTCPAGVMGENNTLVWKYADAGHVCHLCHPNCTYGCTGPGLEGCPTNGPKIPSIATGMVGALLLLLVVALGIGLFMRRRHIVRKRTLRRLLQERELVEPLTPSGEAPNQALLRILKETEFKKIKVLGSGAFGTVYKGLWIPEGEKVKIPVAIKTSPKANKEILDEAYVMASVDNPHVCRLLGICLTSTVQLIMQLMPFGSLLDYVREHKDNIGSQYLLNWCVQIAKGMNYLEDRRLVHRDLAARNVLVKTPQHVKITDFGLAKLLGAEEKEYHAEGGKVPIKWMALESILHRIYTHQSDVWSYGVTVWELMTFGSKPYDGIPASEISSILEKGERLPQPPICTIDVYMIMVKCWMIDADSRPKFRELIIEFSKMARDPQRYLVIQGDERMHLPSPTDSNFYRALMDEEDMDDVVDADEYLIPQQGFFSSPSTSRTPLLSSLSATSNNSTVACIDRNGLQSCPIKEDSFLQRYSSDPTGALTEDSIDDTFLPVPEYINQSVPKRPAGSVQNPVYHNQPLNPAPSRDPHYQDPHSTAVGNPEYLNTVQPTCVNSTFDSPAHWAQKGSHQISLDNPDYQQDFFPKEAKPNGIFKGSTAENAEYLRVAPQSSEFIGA
T4 sequence (P00533 25-1210 T790M/L858R): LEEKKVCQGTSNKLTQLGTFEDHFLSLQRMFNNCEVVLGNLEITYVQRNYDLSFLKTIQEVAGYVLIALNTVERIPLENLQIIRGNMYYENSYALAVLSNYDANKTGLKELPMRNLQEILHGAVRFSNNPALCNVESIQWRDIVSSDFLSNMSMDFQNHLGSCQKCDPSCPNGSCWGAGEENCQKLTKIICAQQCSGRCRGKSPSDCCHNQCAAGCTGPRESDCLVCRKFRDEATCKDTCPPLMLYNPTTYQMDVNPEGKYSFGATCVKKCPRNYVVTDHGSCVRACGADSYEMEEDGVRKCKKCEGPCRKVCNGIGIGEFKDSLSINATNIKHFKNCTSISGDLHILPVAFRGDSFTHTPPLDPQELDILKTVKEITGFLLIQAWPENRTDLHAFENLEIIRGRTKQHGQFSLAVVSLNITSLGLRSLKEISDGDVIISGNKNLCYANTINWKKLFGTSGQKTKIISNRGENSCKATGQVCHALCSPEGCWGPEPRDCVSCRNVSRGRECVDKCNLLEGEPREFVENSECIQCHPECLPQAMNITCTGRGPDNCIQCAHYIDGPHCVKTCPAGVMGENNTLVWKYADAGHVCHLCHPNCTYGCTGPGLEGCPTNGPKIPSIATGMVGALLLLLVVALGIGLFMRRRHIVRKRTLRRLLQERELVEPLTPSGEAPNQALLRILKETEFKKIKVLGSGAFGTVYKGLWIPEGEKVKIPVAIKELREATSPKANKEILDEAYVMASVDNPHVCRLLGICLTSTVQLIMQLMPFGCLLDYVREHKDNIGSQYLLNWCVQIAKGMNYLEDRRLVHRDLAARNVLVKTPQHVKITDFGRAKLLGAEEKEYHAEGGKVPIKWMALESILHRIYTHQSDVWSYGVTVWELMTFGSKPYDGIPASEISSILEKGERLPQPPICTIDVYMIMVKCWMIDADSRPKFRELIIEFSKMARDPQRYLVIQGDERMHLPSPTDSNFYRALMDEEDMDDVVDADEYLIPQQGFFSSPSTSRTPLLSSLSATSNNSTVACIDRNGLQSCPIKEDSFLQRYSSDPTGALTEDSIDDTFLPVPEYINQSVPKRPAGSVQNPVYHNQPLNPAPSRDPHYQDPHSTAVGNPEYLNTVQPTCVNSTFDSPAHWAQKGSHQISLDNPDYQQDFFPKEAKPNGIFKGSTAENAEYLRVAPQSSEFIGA
T6 sequence (P00533 with tags, fused parts or gaps DEL746-750/T790M, form open): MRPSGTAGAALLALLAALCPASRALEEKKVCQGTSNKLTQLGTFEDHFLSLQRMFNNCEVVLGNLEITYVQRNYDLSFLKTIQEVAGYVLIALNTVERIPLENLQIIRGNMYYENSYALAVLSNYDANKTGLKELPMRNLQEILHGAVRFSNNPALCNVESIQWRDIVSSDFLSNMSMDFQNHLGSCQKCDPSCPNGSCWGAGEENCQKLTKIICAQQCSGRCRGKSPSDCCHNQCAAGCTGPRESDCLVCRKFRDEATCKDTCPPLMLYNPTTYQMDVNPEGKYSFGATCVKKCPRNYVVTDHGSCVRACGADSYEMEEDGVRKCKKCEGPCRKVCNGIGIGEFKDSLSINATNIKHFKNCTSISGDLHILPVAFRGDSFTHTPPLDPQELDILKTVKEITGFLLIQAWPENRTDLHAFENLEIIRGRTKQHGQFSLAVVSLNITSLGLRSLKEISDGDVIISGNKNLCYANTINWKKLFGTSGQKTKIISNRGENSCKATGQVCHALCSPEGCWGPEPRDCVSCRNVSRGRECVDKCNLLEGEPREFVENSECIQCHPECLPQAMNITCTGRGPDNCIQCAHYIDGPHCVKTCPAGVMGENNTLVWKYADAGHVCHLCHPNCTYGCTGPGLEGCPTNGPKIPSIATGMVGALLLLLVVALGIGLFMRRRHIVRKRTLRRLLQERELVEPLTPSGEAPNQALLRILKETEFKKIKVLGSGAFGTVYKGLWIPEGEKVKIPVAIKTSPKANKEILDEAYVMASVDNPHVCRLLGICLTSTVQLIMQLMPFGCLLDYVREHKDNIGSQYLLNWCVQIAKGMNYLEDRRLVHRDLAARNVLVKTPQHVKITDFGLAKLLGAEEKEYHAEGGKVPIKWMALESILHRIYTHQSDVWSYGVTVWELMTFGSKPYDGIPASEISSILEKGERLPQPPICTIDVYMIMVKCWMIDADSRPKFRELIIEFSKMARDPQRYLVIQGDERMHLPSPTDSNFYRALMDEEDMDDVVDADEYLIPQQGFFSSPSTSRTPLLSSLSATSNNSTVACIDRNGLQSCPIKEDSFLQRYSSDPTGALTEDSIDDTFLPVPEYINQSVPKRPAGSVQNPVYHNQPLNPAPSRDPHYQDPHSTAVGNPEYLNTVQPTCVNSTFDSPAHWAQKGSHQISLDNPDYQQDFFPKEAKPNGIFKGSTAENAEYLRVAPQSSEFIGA

Structure (SMILES) | IC50 [1] | IC50 [2] | IC50 [3] | IC50 [4] | IC50 [5] | IC50 [6]
CCN(c1c(Nc2nc(Nc3ccc(N4CCC(N5CCN(C)CC5)CC4)cc3OC)ncc2Br)ccc2nccnc12)S(C)(=O)=O [Compound I-211] | 50 to 500 nM | ≤ 50 nM | ≤ 50 nM | ≤ 50 nM | ≤ 50 nM | ≤ 50 nM
CCc1cc(Nc2ncc(Br)c(Nc3ccc4nccnc4c3N(CC)S(C)(=O)=O)n2)c(OC)nc1N1CCC(N2CCN(C)CC2)CC1 [Compound I-212] | 50 to 500 nM | ≤ 50 nM | 50 to 500 nM | ≤ 50 nM | ≤ 50 nM | ≤ 50 nM
CCN(c1c(Nc2nc(Nc3cc(CC4CC4)c(N4CCC(N5CCN(C)CC5)CC4)cc3OC)ncc2Br)ccc2nccnc12)S(C)(=O)=O [Compound I-213] | ≤ 50 nM | ≤ 50 nM | ≤ 50 nM | ≤ 50 nM | ≤ 50 nM | ≤ 50 nM
CCS(=O)(=O)N(C)c1c(Nc2nc(Nc3ccc(N4CCC(N5CCN(C)CC5)CC4)cc3OC)ncc2Br)ccc2nccnc12 [Compound I-214] | 50 to 500 nM | 50 to 500 nM | 50 to 500 nM | ≤ 50 nM | ≤ 50 nM | ≤ 50 nM
COc1cc(N2CCC(N3CCN(C)CC3)CC2)ccc1Nc1ncc(Br)c(Nc2ccc3nccnc3c2N(C)S(=O)(=O)C2CC2)n1 [Compound I-215] | 50 to 500 nM | ≤ 50 nM | 50 to 500 nM | ≤ 50 nM | ≤ 50 nM | ≤ 50 nM
COc1nc(N2CCC(N3CCN(C)CC3)CC2)ccc1Nc1ncc(Br)c(Nc2ccc3nccnc3c2N(C)S(=O)(=O)C2CC2)n1 [Compound I-216] | 500 to 2500 nM | 50 to 500 nM | 500 to 2500 nM | 500 to 2500 nM | 50 to 500 nM | 500 to 2500 nM
CCc1cc(Nc2ncc(Br)c(Nc3ccc4nccnc4c3N(C)S(=O)(=O)C3CC3)n2)c(OC)nc1N1CCC(N2CCN(C)CC2)CC1 [Compound I-218] | 50 to 500 nM | ≤ 50 nM | 50 to 500 nM | ≤ 50 nM | ≤ 50 nM | ≤ 50 nM
C=Cc1cc(Nc2ncc(Br)c(Nc3ccc4nccnc4c3N(C)S(=O)(=O)C3CC3)n2)c(OC(F)(F)F)cc1N1CCC(N2CCN(C)CC2)CC1 [Compound I-219] | 50 to 500 nM | 50 to 500 nM | 50 to 500 nM | 50 to 500 nM | ≤ 50 nM | ≤ 50 nM
COc1cc(N2CCC(N3CCN(C)CC3)CC2)c(CC2CC2)cc1Nc1ncc(Br)c(Nc2ccc3nccnc3c2N(C)S(=O)(=O)C2CC2)n1 [Compound I-220] | 50 to 500 nM | ≤ 50 nM | 50 to 500 nM | 50 to 500 nM | ≤ 50 nM | 50 to 500 nM
COc1cc(N2CCC(N(C)C)CC2)c(C)cc1Nc1ncc(Br)c(Nc2ccc3nccnc3c2N(C)S(=O)(=O)C2CC2)n1 [Compound I-221] | 50 to 500 nM | ≤ 50 nM | 50 to 500 nM | ≤ 50 nM | ≤ 50 nM | ≤ 50 nM
COc1cc(N2CCC(N(C)C)C2)c(C)cc1Nc1ncc(Br)c(Nc2ccc3nccnc3c2N(C)S(=O)(=O)C2CC2)n1 (stereo not drawn) [Compound I-222] | 50 to 500 nM | ≤ 50 nM | 50 to 500 nM | ≤ 50 nM | ≤ 50 nM | ≤ 50 nM
COc1cc(N2CCC(N3CCN(C)CC3)CC2)ccc1Nc1ncc(Br)c(Nc2ccc3nccnc3c2N(C2CC2)S(C)(=O)=O)n1 [Compound I-223] | 50 to 500 nM | ≤ 50 nM | 50 to 500 nM | ≤ 50 nM | ≤ 50 nM | ≤ 50 nM
CCN(c1c(Nc2nc(Nc3ccc(N4CCC(N5CCN(C)CC5)CC4)cc3OC)ncc2Cl)ccc2nccnc12)S(C)(=O)=O [Compound I-224] | 50 to 500 nM | ≤ 50 nM | 50 to 500 nM | ≤ 50 nM | ≤ 50 nM | 50 to 500 nM
CCN(c1c(Nc2nc(Nc3ccc(N4CCC(N5CCN(C)CC5)CC4)nc3OC)ncc2Cl)ccc2nccnc12)S(C)(=O)=O [Compound I-225] | 50 to 500 nM | 50 to 500 nM | 50 to 500 nM | 50 to 500 nM | ≤ 50 nM | 50 to 500 nM
